This note sets out measurements from patent US20250051338A1, “TYK2 DEGRADERS AND USES THEREOF” (Kymera Therapeutics, Inc., priority 2021, published 2025).

What all share (assay type): cell-based
For test [1], the target named is T1, TYK2 (Homo sapiens, UniProt P29597). The experiment in a line: TYK2 degradation MSD assay in EBV-B cells. Further details: endogenous in cells; host or cells: EBV-B cells. The settings on record: 4 to 24 hours incubation, read-out: TYK2 MSD DC50 rating in EBV-B. In short, it runs like this: (§1)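 TYK2 levels in lysed cells, detected via antibody capture and SULFO-TAG electrochemiluminescence, were compared across a nine-point threefold compound dilution (highest 1 to 10 μM) after 4–24 h culture at 37° C under 5% CO2. Four-parameter nonlinear regression of the dose response yielded DC50.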
T1 sequence (P29597 whole entry): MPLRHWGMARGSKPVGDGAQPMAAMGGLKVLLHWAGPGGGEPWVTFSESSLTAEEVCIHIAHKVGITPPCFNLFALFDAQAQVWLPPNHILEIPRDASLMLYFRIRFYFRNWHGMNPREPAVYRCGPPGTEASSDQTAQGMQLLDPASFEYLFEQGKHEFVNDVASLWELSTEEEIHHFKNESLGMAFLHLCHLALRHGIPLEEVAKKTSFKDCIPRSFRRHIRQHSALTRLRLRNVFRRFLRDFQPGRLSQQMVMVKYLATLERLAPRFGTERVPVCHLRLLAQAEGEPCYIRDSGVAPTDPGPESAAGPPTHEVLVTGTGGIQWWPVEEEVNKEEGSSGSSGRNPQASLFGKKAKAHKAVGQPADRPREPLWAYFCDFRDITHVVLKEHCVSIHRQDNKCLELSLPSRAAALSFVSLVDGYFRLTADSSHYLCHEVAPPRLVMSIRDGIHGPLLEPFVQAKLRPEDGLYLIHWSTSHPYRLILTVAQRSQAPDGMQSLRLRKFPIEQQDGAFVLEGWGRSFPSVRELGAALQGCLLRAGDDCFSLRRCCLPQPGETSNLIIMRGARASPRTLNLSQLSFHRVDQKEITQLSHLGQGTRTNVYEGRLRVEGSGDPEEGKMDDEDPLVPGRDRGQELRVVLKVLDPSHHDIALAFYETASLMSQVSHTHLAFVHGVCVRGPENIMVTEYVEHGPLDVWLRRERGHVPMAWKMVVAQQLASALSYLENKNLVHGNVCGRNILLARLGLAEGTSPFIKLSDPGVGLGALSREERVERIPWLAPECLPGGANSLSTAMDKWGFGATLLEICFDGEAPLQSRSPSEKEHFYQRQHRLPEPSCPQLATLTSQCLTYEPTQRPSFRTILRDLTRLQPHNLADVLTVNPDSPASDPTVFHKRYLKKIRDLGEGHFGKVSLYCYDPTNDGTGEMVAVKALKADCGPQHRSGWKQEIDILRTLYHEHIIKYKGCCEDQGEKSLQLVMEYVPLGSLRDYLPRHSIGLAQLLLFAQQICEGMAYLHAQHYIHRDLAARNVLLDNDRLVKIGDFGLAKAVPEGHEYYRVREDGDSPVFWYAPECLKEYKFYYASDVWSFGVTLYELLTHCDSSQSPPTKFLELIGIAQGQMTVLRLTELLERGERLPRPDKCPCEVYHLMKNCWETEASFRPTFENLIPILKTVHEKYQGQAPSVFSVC

The target of test [2] is T1, TYK2. The experiment in a line: TYK2 degradation MSD assay in human PBMC cells. Particulars: 4 to 24 hours incubation, read-out: TYK2 MSD DC50 rating in human PBMC. Further details: endogenous in cells; host or cells: human PBMC. In short, it runs like this:
as §1

Test [3] has as its target T1, TYK2. The test is described as follows: TYK2 degradation MSD assay in OCI-LY10 cells. Also noted: endogenous in cells; host or cells: EBV-B cells. Particulars: 4 to 24 hours incubation, read-out: TYK2 MSD DC50 rating in OCI-LY10. The procedure, abridged: as §1

One may read the DC50 as the concentration at which degradation of the target reaches its halfway point. Turning to `CNc1cc(Nc2cccc(C(=O)NCCCCCCCCc3ccc4c(c3)n(C)c(=O)n4C3CCC(=O)NC3=O)c2)nn2c(C(=O)N[C@@H]3C[C@@H]3F)cnc12` (stereo partly drawn) [Example K251], the DC50 in test [1] is greater than 100 nM; in test [2], less than 1 nM; in test [3], greater than 100 nM.

`CNc1cc(Nc2ccccc2C(=O)NCCCCc2ccc3c(c2)n(C)c(=O)n3C2CCC(=O)NC2=O)nn2c(C(=O)N[C@@H]3C[C@@H]3F)cnc12` (stereo partly drawn) [Example K252]: the DC50 in test [1], in test [2] and in test [3] was greater than 100 nM throughout.

With `CNc1cc(Nc2ccccc2C(=O)NCCCCc2cccc3c2n(C)c(=O)n3C2CCC(=O)NC2=O)nn2c(C(=O)N[C@@H]3C[C@@H]3F)cnc12` (stereo partly drawn) [Example K253], the 50% degradation concentration (DC50) in test [1], in test [2] and in test [3] was greater than 100 nM each time.

`CNc1cc(Nc2cccc(C(=O)NCCCCCCCCc3cccc4c3n(C)c(=O)n4C3CCC(=O)NC3=O)c2)nn2c(C(=O)N[C@@H]3C[C@@H]3F)cnc12` (stereo partly drawn) [Example K254]: the half-maximal degradation concentration (DC50) in test [1] was greater than 100 nM; in test [2], 1 to 10 nM; in test [3] it was greater than 100 nM.

`CNc1cc(Nc2ccccc2C(=O)NCCCCCCc2ccc3c(c2)n(C)c(=O)n3C2CCC(=O)NC2=O)nn2c(C(=O)N[C@@H]3C[C@@H]3F)cnc12` (stereo partly drawn) [Example K255]: the DC50 in test [1] was greater than 100 nM; in test [2], less than 1 nM; in test [3], greater than 100 nM.

On to `CNc1cc(Nc2ccccc2C(=O)NCCCCCCCCc2ccc3c(c2)n(C)c(=O)n3C2CCC(=O)NC2=O)nn2c(C(=O)N[C@@H]3C[C@@H]3F)cnc12` (stereo partly drawn) [Example K256], for which the values for the DC50 in test [1], in test [2] and in test [3] were greater than 100 nM, less than 1 nM and greater than 100 nM, respectively.

`CNc1cc(Nc2ccccc2C(=O)NCCCCCCc2cccc3c2n(C)c(=O)n3C2CCC(=O)NC2=O)nn2c(C(=O)N[C@@H]3C[C@@H]3F)cnc12` (stereo partly drawn) [Example K257]: the DC50 was greater than 100 nM in test [1], 1 to 10 nM in test [2] and 10 to 100 nM in test [3].

As to `CNc1cc(Nc2ccccc2C(=O)NCCCCCCCCc2cccc3c2n(C)c(=O)n3C2CCC(=O)NC2=O)nn2c(C(=O)N[C@@H]3C[C@@H]3F)cnc12` (stereo partly drawn) [Example K258], the DC50 is greater than 100 nM in test [1], less than 1 nM in test [2] and greater than 100 nM in test [3].

For the compound `CNc1cc(Nc2cccn(-c3ccc(C(=O)NCCCCc4cccc5c4n(C)c(=O)n5C4CCC(=O)NC4=O)cn3)c2=O)nn2c(C(=O)N[C@@H]3C[C@@H]3F)cnc12` (stereo partly drawn) [Example K259], the DC50 in test [1], in test [2] and in test [3] was greater than 100 nM in each case.

In the case of `CNc1cc(Nc2cccn(-c3ccc(C(=O)NCCCCCCCc4ccc5c(c4)n(C)c(=O)n5C4CCC(=O)NC4=O)cn3)c2=O)nn2c(C(=O)N[C@@H]3C[C@@H]3F)cnc12` (stereo partly drawn) [Example K260], the DC50 in test [1] was greater than 100 nM; in test [2] it was less than 1 nM; in test [3], greater than 100 nM.

For `CNc1cc(Nc2cccn(-c3ccc(C(=O)NCCCCCCCCCCc4ccc5c(c4)n(C)c(=O)n5C4CCC(=O)NC4=O)cn3)c2=O)nn2c(C(=O)N[C@@H]3C[C@@H]3F)cnc12` (stereo partly drawn) [Example K261], the DC50 in test [1] is 1 to 10 nM; in test [2], less than 1 nM; in test [3], greater than 100 nM.

Regarding `CNc1cc(Nc2cccn(-c3ccc(C(=O)NCCOCCOCCc4ccc5c(c4)n(C)c(=O)n5C4CCC(=O)NC4=O)cn3)c2=O)nn2c(C(=O)N[C@@H]3C[C@@H]3F)cnc12` (stereo partly drawn) [Example K262], the DC50 was greater than 100 nM in test [1], 1 to 10 nM in test [2] and greater than 100 nM in test [3].

As to `CNc1cc(Nc2cccn(-c3ccc(C(=O)NCCOCCOCCOCCOCCc4ccc5c(c4)n(C)c(=O)n5C4CCC(=O)NC4=O)cn3)c2=O)nn2c(C(=O)N[C@@H]3C[C@@H]3F)cnc12` (stereo partly drawn) [Example K263], the half-maximal degradation concentration (DC50) in test [1] is greater than 100 nM; in test [2], 1 to 10 nM; in test [3], greater than 100 nM.

Consider `CNc1cc(Nc2cccn(-c3ccc(C(=O)NCCCCc4ccc5c(c4)n(C)c(=O)n5C4CCC(=O)NC4=O)cn3)c2=O)nn2c(C(=O)N[C@@H]3C[C@@H]3F)cnc12` (stereo partly drawn) [Example K264], for which the half-maximal degradation concentration (DC50) in test [1], in test [2] and in test [3] was greater than 100 nM in each case.

With `CNc1cc(Nc2cccn(-c3ccc(C(=O)NCCCCCCCc4cccc5c4n(C)c(=O)n5C4CCC(=O)NC4=O)cn3)c2=O)nn2c(C(=O)N[C@@H]3C[C@@H]3F)cnc12` (stereo partly drawn) [Example K265], the DC50 in test [1] was greater than 100 nM; in test [2], less than 1 nM; in test [3], greater than 100 nM.

With `CNc1cc(Nc2cccn(-c3ccc(C(=O)NCCCCCCCCCc4cccc5c4n(C)c(=O)n5C4CCC(=O)NC4=O)cn3)c2=O)nn2c(C(=O)N[C@@H]3C[C@@H]3F)cnc12` (stereo partly drawn) [Example K266], the DC50 in test [1] was greater than 100 nM; in test [2], less than 1 nM; in test [3] it was greater than 100 nM.

For `CNc1cc(Nc2cccn(C3CCN(C(=O)COCCOCCc4ccc5c(c4)n(C)c(=O)n5C4CCC(=O)NC4=O)CC3)c2=O)nn2c(C(=O)N[C@@H]3C[C@@H]3F)cnc12` (stereo partly drawn) [Example K275], the DC50 in test [1], in test [2] and in test [3] was greater than 100 nM throughout.

As to `CNc1cc(Nc2cccn(C3CCN(C(=O)COCCOCCOCCOCCc4ccc5c(c4)n(C)c(=O)n5C4CCC(=O)NC4=O)CC3)c2=O)nn2c(C(=O)N[C@@H]3C[C@@H]3F)cnc12` (stereo partly drawn) [Example K276], the 50% degradation concentration (DC50) in test [1] is greater than 100 nM; in test [2] it was 10 to 100 nM; in test [3] it was greater than 100 nM.

As to `CNc1cc(Nc2cccn(C3CCN(C(=O)NCCCCc4ccc5c(c4)n(C)c(=O)n5C4CCC(=O)NC4=O)CC3)c2=O)nn2c(C(=O)N[C@@H]3C[C@@H]3F)cnc12` (stereo partly drawn) [Example K277], the DC50 in test [1] is greater than 100 nM; in test [2] it was 1 to 10 nM; in test [3], greater than 100 nM.

Take `CNc1cc(Nc2cccn(C3CCN(C(=O)NCCCCc4cccc5c4n(C)c(=O)n5C4CCC(=O)NC4=O)CC3)c2=O)nn2c(C(=O)N[C@@H]3C[C@@H]3F)cnc12` (stereo partly drawn) [Example K278]: the results for the DC50 in test [1], in test [2] and in test [3] were greater than 100 nM, 1 to 10 nM and greater than 100 nM, respectively.

As for `CNc1cc(Nc2cccn(-c3ccc(C(=O)N(C)C4CCN(Cc5cccc6c5n(C)c(=O)n6C5CCC(=O)NC5=O)CC4)cn3)c2=O)nn2c(C(=O)N[C@@H]3C[C@@H]3F)cnc12` (stereo partly drawn) [Example K279], the half-maximal degradation concentration (DC50) was greater than 100 nM in test [1], less than 1 nM in test [2] and greater than 100 nM in test [3].

Regarding `CNc1cc(Nc2cccn(-c3ccc(C(=O)N(C)CC4CCN(c5ccc6c(c5)n(C)c(=O)n6C5CCC(=O)NC5=O)CC4)cn3)c2=O)nn2c(C(=O)N[C@@H]3C[C@@H]3F)cnc12` (stereo partly drawn) [Example K280], the half-maximal degradation concentration (DC50) is less than 1 nM in test [1], less than 1 nM in test [2] and greater than 100 nM in test [3].

Regarding `CNc1cc(Nc2cccn(-c3ccc(C(=O)N(C)CC4CCN(Cc5cccc6c5n(C)c(=O)n6C5CCC(=O)NC5=O)CC4)cn3)c2=O)nn2c(C(=O)N[C@@H]3C[C@@H]3F)cnc12` (stereo partly drawn) [Example K281], the DC50 in test [1] was less than 1 nM; in test [2], less than 1 nM; in test [3], greater than 100 nM.

Turning to `CNc1cc(-c2cnn(C3CCN(C(=O)NCCCCc4ccc5c(c4)n(C)c(=O)n5C4CCC(=O)NC4=O)CC3)c2)nn2c(C(=O)N[C@@H]3C[C@@H]3F)cnc12` (stereo partly drawn) [Example K294], the DC50 in test [1], in test [2] and in test [3] was greater than 100 nM throughout.
